Experimental findings from patent US11168364B2, “Method and system for sequencing nucleic acids” (priority 2016, dated 2021) are described below.

Assay [1] addresses T1, HIV reverse transcriptase (Human immunodeficiency virus type 1 group M subtype B, UniProt P03366).
T1 construct: Recombinant purified HIV reverse transcriptase (HIV RT) was from Worthington Biochemical Corp; purchased Worthington Biochemical Corp (Lakewood, N.J.)
The assay is described as follows: Biolayer interferometry binding of HIV RT, dNTP and NNRTI to primer-template biosensor (Example 8). Details: species or system HIV-1. Conditions: 100 μM dNTP, 100 nM HIV RT, association phase. The procedure: Uncompetitive NNRTI compounds (Pitta et al., J. Enzyme Inhib. Med. Chem. 28(10): 113-22 (2013)), which is incorporated by reference herein in its entirety), were from Epigen Biosciences, Inc. (San Diego, Calif.). NNRTI compounds 7 (3-4-chloro-benzo[d]thiazol-2-yl)-2-(2-chloro-6-fluorophenyl)thiazolidin-4-one) and 18 (3-(6-ethoxy-benzo[d]thiazol-2-yl)-2-(2-chloro-6-fluorophenyl)thiazolidin-4-one) were dissolved in dimethylsulfoxide (DMSO) to concentrations of 25.0 mM and 15.0 mM, respectively. Recombinant purified HIV reverse transcriptase (HIV RT) was from Worthington Biochemical Corp (Lakewood, N.J.). Ultra-pure bovine serum albumin (BSA) was from Ambion (Foster City, Calif.). […] Primer-template duplex was diluted (100 μM) into Annealing Buffer. Immediately before use, HIV Reverse Transcriptase was pre-diluted into Enzyme Diluent (50 mM Tris buffer (pH 8.0), 8 mM MgCl2). […] NNRTI compounds were pre-diluted with DMSO immediately before being spiked into Binding Buffer. Reaction Buffer was Binding Buffer without NNRTI, dNTP or HIV RT enzyme. […] Biosensors were transferred to Binding Buffer containing HIV RT and dCTP+NNRTI (association phase) followed by Reaction Buffer (dCTP incorporation and dissociation phase). […] Cycles of binding and incorporation were repeated multiple times. […]
A general note: In BLI a coated tip is dipped into the sample, and binding shifts an interference pattern.

In assay [2] the test system is Nucleic Acid:Polymerase Complex. The assay is described as follows: Stabilization of nucleic acid:polymerase complex in wash buffer (Example 6). It counts as binding. Conditions: 3.5 mM Sr2+ in wash buffer (LS buffer). The procedure: To minimize the possibility of multiple incorporations in a homopolymer region, a wash step can be performed before incorporation. Metal cations such as calcium and strontium can stabilize the polymerase complex (like magnesium), but cannot support catalysis of the phosphodiester bond which results in incorporation of the nucleotide. In this experiment, varying concentrations of SrCl2 (0 mM-14 mM) were added to the wash buffer (LS buffer).

Assay [3] has as its target Klenow (3′→5′ exo(−)) fragment of E. coli DNA polymerase (Escherichia coli, UniProt P00582, D355A/E357A). Conditions: divalent cation 2.0 mM (CoCl2 1.0 mM) in Binding Buffer; 100 μM dCTP.

Sequence of Klenow (3′→5′ exo(−)) fragment of E. coli DNA polymerase (P00582 324-928 D355A/E357A limits assumed): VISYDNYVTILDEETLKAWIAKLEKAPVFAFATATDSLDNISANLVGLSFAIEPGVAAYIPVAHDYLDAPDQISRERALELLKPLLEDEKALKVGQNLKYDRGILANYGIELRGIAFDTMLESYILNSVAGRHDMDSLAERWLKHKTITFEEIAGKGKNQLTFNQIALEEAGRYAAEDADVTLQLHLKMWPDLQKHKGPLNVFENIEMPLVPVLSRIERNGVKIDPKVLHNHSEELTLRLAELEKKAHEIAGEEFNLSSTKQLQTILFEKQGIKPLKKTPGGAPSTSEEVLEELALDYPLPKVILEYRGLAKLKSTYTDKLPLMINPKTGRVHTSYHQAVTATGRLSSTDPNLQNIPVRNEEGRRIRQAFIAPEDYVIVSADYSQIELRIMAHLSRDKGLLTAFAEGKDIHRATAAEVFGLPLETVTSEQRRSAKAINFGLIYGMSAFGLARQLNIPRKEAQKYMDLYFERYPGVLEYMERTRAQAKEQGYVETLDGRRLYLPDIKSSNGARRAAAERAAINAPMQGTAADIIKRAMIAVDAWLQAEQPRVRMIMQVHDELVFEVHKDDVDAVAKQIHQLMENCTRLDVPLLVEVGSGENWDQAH

As to `O=C1CSC(c2c(F)cccc2Cl)N1c1nc2c(Cl)cccc2s1` (stereo not shown) [NNRTI compound 7], in assay [1] (NNRTI 40 μM), the “binding of HIV reverse transcriptase and correct dNTP to biosensor coated with primer-template” value is “distinct peaks for binding”.

For `CCOc1ccc2nc(N3C(=O)CSC3c3c(F)cccc3Cl)sc2c1` (stereo not shown) [NNRTI compound 18, 3-(6-ethoxy-benzo[d]thiazol-2-yl)-2-(2-chloro-6-fluorophenyl)thiazolidin-4-one], in assay [1] (NNRTI 80 μM), the “binding of HIV reverse transcriptase and correct dNTP to biosensor coated with primer-template” value was “distinct peaks for binding”.

In the case of `[Cl-].[Cl-].[Sr+2]` [SrCl2, Strontium chloride], the “stability of polymerase complex in wash buffer” value in assay [2] is on record as “much more stable”. The “binding of Klenow exo(−) and dCTP to biosensor coated with ssDNA primer-template” value in assay [3] is on record as “bound strongly”.
